Measurements from US5990122A, “Quinolone- and naphthyridonecarboxylic acid derivatives” (Bayer Aktiengesellschaft, priority 1994, dated 1999).
≈ marks a conversion by molar mass, not a printed value. Where two headings read alike, the source gives them in different places.

Assays:
Type in all cases: cell-based
[1] = inhibition of DNA synthesis in cells from ovaries of the Chinese hamster (CHO-KI), genotoxic potential, fluorophotometric; settings: hamster, cho-k1 cells, measure of the genotoxic potential, read-out: ID50 (concentration at which DNA synthesis in CHO-KI cells is inhibited by 50%)
Source text: (§1) The following Tables 1 and 2 show the minimum inhibitory concentrations as a measure of the antibacterial activity and the ID50 values as a measure of the genotoxic potential of a substance both for compounds according to the invention and for reference compounds from the prior art (EP 520 240). The compounds according to the invention are distinguished in particular by the fact that they have lower interactions with mammalian DNA compared with the compounds according to the prior art. The ID50 is understood as meaning the concentration of a substance at which DNA synthesis in cells from ovaries of the Chinese hamster (CHO-KI) is inhibited by 50%. This value is determined after incubation of the corresponding substances in decreasing dilution stages over defined periods of time. For this, the DNA synthesis in CHO-KI cells is determined in comparison with controls by means of fluorophotometric methods.

E. coli Neumann = assay: minimum inhibitory concentration (MIC), series dilution method on Iso-Sensitest agar; settings: 37° C., about 20 hours
Experimental: (§2) The minimum inhibitory concentrations (MIC) were determined by a series dilution method on Iso-Sensitest agar (Oxoid). For each test substance, a series of agar plates each comprising concentrations of the active compound decreasing by double dilution in each case was prepared. The agar plates were inoculated with a multipoint inoculator (Denley). Overnight cultures of the pathogens which had been diluted beforehand such that each inoculation point comprised about 10^4 colony-forming particles were used for the inoculation. The inoculation agar plates were incubated at 37° C. and the germ growth was read off after about 20 hours. The MIC value (μg/ml) indicated the lowest active compound concentration at which no growth was detectable with the naked eye.

Ps. aeruginosa Walter = assay: as above; settings: 37° C., about 20 hours
Experimental: as §2

Bac. fragilis ES 25 = assay: as above; settings: about 20 hours
Experimental: as §2

Staph. aureus 133 = assay: as above; settings: 37° C., about 20 hours
Experimental: as §2

Staph. aureus ICB 25701 = assay: as above; settings: about 20 hours
Experimental: as §2

CHO-KI cells = assay: inhibition of DNA synthesis in cells from ovaries of the Chinese hamster (CHO-KI), genotoxic potential, fluorophotometric; settings: measure of the genotoxic potential
Source text: as §1

[2] = Escherichia coli, read-out: MIC
[3] = Pseudomonas aeruginosa, read-out: MIC
[4] = Bacteroides fragilis, ES25, 37° C., read-out: MIC
[5] = Staphylococcus aureus, read-out: MIC
[6] = Staphylococcus aureus, ICB25701, 37° C., read-out: MIC

Structure (SMILES)	IC50 [1]	MIC (E. coli Neumann; [2])	MIC (Ps. aeruginosa Walter; [3])	MIC (Bac. fragilis ES 25; [4])	MIC (Staph. aureus 133; [5])	MIC (Staph. aureus ICB 25701; [6])	ID50 (concentration at which DNA synthesis in CHO-KI cells is inhibited by 50%) (CHO-KI cells)	MIC (E. coli Neumann)	MIC (Ps. aeruginosa Walter)	MIC (Bac. fragilis ES 25; 37° C.)	MIC (Staph. aureus 133)	MIC (Staph. aureus ICB 25701; 37° C.)
NC12C=CC(CC1)C1CN(c3cc4c(cc3F)c(=O)c(C(=O)O)cn4C3CC3)CC12 (centres unmarked) [Example 1, 7-(1-amino-4-aza-tricyclo[5.2.2.0^2,6]undec-8-en-4-yl)-1-cyclopropyl-6-fluoro-1,4-dihydro-4-oxo-3-quinolinecarboxylic acid]	24 µg/mL (≈ 58.6 µM)	0.125 µg/mL (≈ 0.305 µM)	8 µg/mL (≈ 19.5 µM)	16 µg/mL (≈ 39.1 µM)	0.062 µg/mL (≈ 0.151 µM)	8 µg/mL (≈ 19.5 µM)						
CNC1C=CC(C)C2CN(c3c(F)cc4c(=O)c(C(=O)O)cn(C5CC5)c4c3Cl)CC12 (centres unmarked) [Ref. 4, 7(7-methyl-4-methylamino-1,3,3a,4,7,7a-hexahydro-isoindol-2-yl)-8-chloro- -cyclopropyl-6-fluoro-1,4-dihydro-4-oxo-3-quinolinecarboxylic acid, reference compound]	0.1 µg/mL (≈ 0.224 µM)	0.03 µg/mL (≈ 0.0673 µM)	1 µg/mL (≈ 2.24 µM)	0.5 µg/mL (≈ 1.12 µM)	0.015 µg/mL (≈ 0.0336 µM)							
COc1c(N2CC3C(C)C=CC(N)C3C2)c(F)cc2c(=O)c(C(=O)O)cn(C3CC3)c12 (centres unmarked) [Ref. 2, 7(4-amino-7-methyl-1,3,3a,4,7,7a-hexahydro-isoindol-2-y1)-1-cyclopropyl-6 fluoro-1,4-dihydro-8-methoxy-4-oxo-3-quinolinecarboxylic acid, reference compound]		0.015 µg/mL (≈ 0.0351 µM)	1 µg/mL (≈ 2.34 µM)	0.25 µg/mL (≈ 0.585 µM)	0.015 µg/mL (≈ 0.0351 µM)	0.015 µg/mL (≈ 0.0351 µM)						
COc1c(N2CC3C4CCC(N)(CC4)C3C2)c(F)cc2c(=O)c(C(=O)O)cn(C3CC3)c12 (centres unmarked) [Example 20, 7-(1-amino-4-azatricyclo[5.2.2.0^2,6]undec-4-yl)-1-cyclopropyl-6-fluoro-1,4-dihydro-8-methoxy-4-oxo-3-quinolinecarboxylic acid]	16 µg/mL (≈ 36.2 µM)	0.03 µg/mL (≈ 0.0679 µM)	2 µg/mL (≈ 4.53 µM)	1 µg/mL (≈ 2.26 µM)	0.015 µg/mL (≈ 0.034 µM)	0.125 µg/mL (≈ 0.283 µM)						
NC12CCC(CC1)C1CN(c3c(F)cc4c(=O)c(C(=O)O)cn(C5CC5)c4c3C(F)(F)F)CC12 (centres unmarked) [Example 21, 7-(1-amino-4-azatricyclo[5.2.2.0^2,6]undec-4-yl)-1-cyclopropyl-6-fluoro-1,4-dihydro-4-oxo-8-trifluoromethyl-3-quinolinecarboxylic acid]	10 µg/mL (≈ 20.9 µM)	0.015 µg/mL (≈ 0.0313 µM)	4 µg/mL (≈ 8.34 µM)	0.125 µg/mL (≈ 0.261 µM)	0.015 µg/mL (≈ 0.0313 µM)	0.125 µg/mL (≈ 0.261 µM)						
NC12C=CC(CC1)C1CN(c3c(F)cc4c(=O)c(C(=O)O)cn(C5CC5)c4c3F)CC12 (centres unmarked) [Example 2]	1 µg/mL (≈ 2.34 µM)	0.015 µg/mL (≈ 0.0351 µM)	0.5 µg/mL (≈ 1.17 µM)	0.5 µg/mL (≈ 1.17 µM)	0.015 µg/mL (≈ 0.0351 µM)	0.062 µg/mL (≈ 0.145 µM)						
CN1COc2c(N3CC4C5CCC(N)(CC5)C4C3)c(F)c(N)c3c(=O)c(C(=O)O)cn1c23 (centres unmarked) [Example 22, 8-amino-10-(1-amino-4-azatricyclo[5.2.2.0^2,6]undecan-4-yl)-9-fluoro-3-methyl-7-oxo-2,3-dihydro-7H-pyrido[1,2,3-d,e][1,3,4]benzoxadiazine-6-carboxylic acid]							8 µg/mL (≈ 18 µM)	0.125 µg/mL (≈ 0.282 µM)	8 µg/mL (≈ 18 µM)	4 µg/mL (≈ 9.02 µM)	0.031 µg/mL (≈ 0.0699 µM)	2 µg/mL (≈ 4.51 µM)
CC1C=CC(N)C2CN(c3c(F)cc4c(=O)c(C(=O)O)cn(C5CC5)c4c3F)CC12 (centres unmarked) [Ref. 1, 7(4-amino-7-methyl-1,3,3a,4,7,7a-hexahydro-isoindol-2-y1)-1-cyclopropyl-6 8-difluoro-1,4-dihydro-4-oxo-3-quinolinecarboxylic acid, reference compound]		0.015 µg/mL (≈ 0.0361 µM)	0.5 µg/mL (≈ 1.2 µM)	0.5 µg/mL (≈ 1.2 µM)	0.015 µg/mL (≈ 0.0361 µM)	0.06 µg/mL (≈ 0.144 µM)						
NC12CCC(CC1)C1CN(c3c(F)cc4c(=O)c(C(=O)O)cn(C5CC5)c4c3F)CC12 (centres unmarked) [Example 18, 7-(1-amino-4-azatricyclo[5.2.2.0^2,6]undec-4-yl)-1-cyclopropyl-6,8-difluoro-1,4-dihydro-4-oxo-3-quinolinecarboxylic acid]	1 µg/mL (≈ 2.33 µM)	0.03 µg/mL (≈ 0.0699 µM)	2 µg/mL (≈ 4.66 µM)	1 µg/mL (≈ 2.33 µM)	0.015 µg/mL (≈ 0.0349 µM)	0.25 µg/mL (≈ 0.582 µM)						
NC12CCC(CC1)C1CN(c3c(F)cc4c(=O)c(C(=O)O)cn(C5CC5)c4c3Cl)CC12 (centres unmarked) [Example 19, 7-(1-amino-4-azatricyclo-[5.2.2.0^2,6]undec-4-yl)-8-chloro-1-cyclopropyl-6-fluoro-1,4-dihydro-4-oxo-3-quinolinecarboxylic acid]	4 µg/mL (≈ 8.97 µM)	0.03 µg/mL (≈ 0.0673 µM)	1 µg/mL (≈ 2.24 µM)	0.125 µg/mL (≈ 0.28 µM)	0.015 µg/mL (≈ 0.0336 µM)	0.06 µg/mL (≈ 0.135 µM)						
COc1c(N2CC3C4C=CC(N)(CC4)C3C2)c(F)cc2c(=O)c(C(=O)O)cn(C3CC3)c12 (centres unmarked) [Example 5, 7-(1-amino-4-aza-tricyclo[5.2.2.0^2,6]undec-8-en-4-yl)-1-cyclopropyl-6-fluoro-1,4-dihydro-8-methoxy-4-oxo-3-quinolinecarboxylic acid]	8 µg/mL (≈ 18.2 µM)	0.015 µg/mL (≈ 0.0341 µM)	1 µg/mL (≈ 2.28 µM)	0.125 µg/mL (≈ 0.284 µM)	0.015 µg/mL (≈ 0.0341 µM)	0.031 µg/mL (≈ 0.0705 µM)						
NC12C=CC(CC1)C1CN(c3c(F)cc4c(=O)c(C(=O)O)cn(C5CC5)c4c3C(F)(F)F)CC12 (centres unmarked) [Example 6, 7-(1-Amino-4-aza-tricyclo[5.2.2.0^2,6]undec-8-en-4-yl)-1-cyclopropyl-6-fluoro-1,4-dihydro-4-oxo-8-trifluoromethyl-3-quinolinecarboxylic acid]	10 µg/mL (≈ 20.9 µM)	0.06 µg/mL (≈ 0.126 µM)	4 µg/mL (≈ 8.38 µM)	0.25 µg/mL (≈ 0.524 µM)	0.015 µg/mL (≈ 0.0314 µM)	0.125 µg/mL (≈ 0.262 µM)						
CC1C=CC(N)C2CN(c3c(F)cc4c(=O)c(C(=O)O)cn(C5CC5)c4c3Cl)CC12 (centres unmarked) [Ref. 3, 7(4-amino-7-methyl-1,3,3a,4,7,7a-hexahydro-isoindol-2-yl)-8-chloro-1-cycl propyl-6-fluoro-1,4-dihydro-4-oxo-3-quinolinecarboxylic acid, reference compound]		0.015 µg/mL (≈ 0.0347 µM)	0.5 µg/mL (≈ 1.16 µM)	0.125 µg/mL (≈ 0.289 µM)	0.015 µg/mL (≈ 0.0347 µM)	0.015 µg/mL (≈ 0.0347 µM)						
NC12C=CC(CC1)C1CN(c3c(F)cc4c(=O)c(C(=O)O)cn(C5CC5)c4c3Cl)CC12 (centres unmarked) [Example 3, 7-(1-Amino-4-aza-tricyclo[5.2.2.0^2,6]undec-8-en-4-yl)-8-chloro-1-cyclopropyl-6-fluoro-1,4-dihydro-4-oxo-3-quinoline-carboxylic acid]	4 µg/mL (≈ 9.01 µM)	0.015 µg/mL (≈ 0.0338 µM)	0.5 µg/mL (≈ 1.13 µM)	0.125 µg/mL (≈ 0.282 µM)	0.015 µg/mL (≈ 0.0338 µM)	0.031 µg/mL (≈ 0.0698 µM)						
